Test results as given in ChEMBL document CHEMBL1909046, “DrugMatrix in vitro pharmacology data”.

Key:
[1] = DRUGMATRIX: Serotonin (5-Hydroxytryptamine) 5-HT3 radioligand binding (ligand: [3H] GR-65630); format: cell membranes, Membrane; conditions: hek293; Not Active = under 50% inhibition at 10 µM
[2] = target: Sodium-dependent dopamine transporter (Homo sapiens, UniProt Q01959); assay: DRUGMATRIX: Dopamine Transporter radioligand binding (ligand: [125I] RTI-55); format: cell membranes, CHO-K1, Membrane; conditions: Not Active = under 50% inhibition at 10 µM
Sequence of Sodium-dependent dopamine transporter (Q01959 whole entry): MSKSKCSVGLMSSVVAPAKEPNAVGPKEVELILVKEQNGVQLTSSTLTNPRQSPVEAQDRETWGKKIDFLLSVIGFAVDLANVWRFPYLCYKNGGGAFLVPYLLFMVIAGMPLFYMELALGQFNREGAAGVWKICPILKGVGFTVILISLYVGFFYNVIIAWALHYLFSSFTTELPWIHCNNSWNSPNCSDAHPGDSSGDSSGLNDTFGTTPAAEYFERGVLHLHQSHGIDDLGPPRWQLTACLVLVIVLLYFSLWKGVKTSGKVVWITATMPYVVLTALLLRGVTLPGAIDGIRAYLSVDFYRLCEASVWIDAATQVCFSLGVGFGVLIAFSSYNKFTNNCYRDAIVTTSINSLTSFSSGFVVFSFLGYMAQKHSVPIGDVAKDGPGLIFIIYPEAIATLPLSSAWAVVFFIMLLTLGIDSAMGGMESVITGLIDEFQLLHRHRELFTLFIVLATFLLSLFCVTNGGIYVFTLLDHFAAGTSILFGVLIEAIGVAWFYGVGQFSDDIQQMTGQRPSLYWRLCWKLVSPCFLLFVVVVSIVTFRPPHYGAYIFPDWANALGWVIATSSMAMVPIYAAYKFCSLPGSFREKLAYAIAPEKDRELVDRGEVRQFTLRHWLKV

[3] = DRUGMATRIX: Glutamate, NMDA, Agonism radioligand binding (ligand: [3H] CGP-39653); format: cell membranes, Rattus norvegicus, Wistar, Cerebral cortex, Membrane; conditions: Not Active = under 50% inhibition at 10 µM
[4] = target: 5-hydroxytryptamine receptor 2B (Homo sapiens, UniProt P41595); format: cell membranes, CHO-K1, Membrane; note: in other assays of this panel Not Active means under 50% inhibition at 10 µM
Sequence of 5-hydroxytryptamine receptor 2B (P41595 whole entry): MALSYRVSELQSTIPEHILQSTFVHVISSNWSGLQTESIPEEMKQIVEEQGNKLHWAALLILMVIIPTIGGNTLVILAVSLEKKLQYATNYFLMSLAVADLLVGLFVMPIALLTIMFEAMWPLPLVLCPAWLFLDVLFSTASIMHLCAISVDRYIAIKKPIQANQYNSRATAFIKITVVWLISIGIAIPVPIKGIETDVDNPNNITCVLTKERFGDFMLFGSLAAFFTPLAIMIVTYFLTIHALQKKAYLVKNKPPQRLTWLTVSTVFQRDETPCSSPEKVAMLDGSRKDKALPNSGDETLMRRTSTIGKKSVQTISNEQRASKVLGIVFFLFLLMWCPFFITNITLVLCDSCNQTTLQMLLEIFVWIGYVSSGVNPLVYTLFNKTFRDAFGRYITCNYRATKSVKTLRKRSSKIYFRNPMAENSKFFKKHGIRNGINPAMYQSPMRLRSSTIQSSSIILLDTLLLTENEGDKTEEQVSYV

Cathepsin G = target: T1, Cathepsin G (Homo sapiens, UniProt P08311); assay: biochemical; format: tissue-based, Neutrophil; conditions: neutrophil;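 note: inhibition of Cathepsin G enzyme activity, tested on an AMC-conjugated peptide substrate; in other assays of this panel Not Active means under 50% inhibition at 10 µM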
T1 sequence (P08311 whole entry): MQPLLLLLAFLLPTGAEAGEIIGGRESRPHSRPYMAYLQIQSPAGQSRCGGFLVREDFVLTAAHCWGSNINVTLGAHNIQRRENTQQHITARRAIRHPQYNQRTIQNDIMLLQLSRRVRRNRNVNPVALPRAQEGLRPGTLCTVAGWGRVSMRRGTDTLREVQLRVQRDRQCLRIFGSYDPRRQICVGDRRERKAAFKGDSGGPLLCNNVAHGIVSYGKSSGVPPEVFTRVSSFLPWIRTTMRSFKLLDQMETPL

[5] = target: Voltage-gated inwardly rectifying potassium channel KCNH2 (Homo sapiens, UniProt Q12809); conditions: hek293; note: in other assays of this panel Not Active means under 50% inhibition at 10 µM
Sequence of Voltage-gated inwardly rectifying potassium channel KCNH2 (Q12809 whole entry): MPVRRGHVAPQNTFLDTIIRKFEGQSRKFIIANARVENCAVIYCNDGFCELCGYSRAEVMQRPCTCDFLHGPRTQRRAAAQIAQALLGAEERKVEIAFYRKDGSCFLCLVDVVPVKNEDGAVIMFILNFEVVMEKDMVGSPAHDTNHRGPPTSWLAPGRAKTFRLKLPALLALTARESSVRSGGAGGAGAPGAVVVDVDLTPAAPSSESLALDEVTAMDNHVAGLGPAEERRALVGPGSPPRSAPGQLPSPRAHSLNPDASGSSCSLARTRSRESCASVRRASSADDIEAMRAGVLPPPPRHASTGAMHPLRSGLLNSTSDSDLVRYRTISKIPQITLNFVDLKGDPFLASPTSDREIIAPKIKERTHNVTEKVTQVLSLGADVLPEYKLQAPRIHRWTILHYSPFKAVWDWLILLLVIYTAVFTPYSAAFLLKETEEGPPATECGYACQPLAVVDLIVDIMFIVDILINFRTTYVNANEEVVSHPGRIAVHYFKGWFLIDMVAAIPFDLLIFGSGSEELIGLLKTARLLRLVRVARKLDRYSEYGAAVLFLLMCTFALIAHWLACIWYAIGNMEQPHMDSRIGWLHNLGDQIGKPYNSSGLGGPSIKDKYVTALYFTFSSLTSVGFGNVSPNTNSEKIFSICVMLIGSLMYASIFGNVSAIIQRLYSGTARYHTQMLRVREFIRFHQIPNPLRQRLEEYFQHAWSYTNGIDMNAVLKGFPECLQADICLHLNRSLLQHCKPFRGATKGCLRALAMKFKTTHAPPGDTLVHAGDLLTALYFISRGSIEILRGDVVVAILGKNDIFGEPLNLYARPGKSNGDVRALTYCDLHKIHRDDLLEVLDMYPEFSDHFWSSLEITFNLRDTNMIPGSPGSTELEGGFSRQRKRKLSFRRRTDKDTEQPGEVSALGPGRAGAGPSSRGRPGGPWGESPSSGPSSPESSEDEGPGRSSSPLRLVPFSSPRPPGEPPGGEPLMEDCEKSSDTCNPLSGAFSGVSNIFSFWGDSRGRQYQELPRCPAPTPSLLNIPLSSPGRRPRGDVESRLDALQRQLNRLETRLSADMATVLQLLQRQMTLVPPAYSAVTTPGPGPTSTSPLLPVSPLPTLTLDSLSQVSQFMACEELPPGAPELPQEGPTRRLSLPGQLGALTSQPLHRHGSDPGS

Insulin receptor = Insulin receptor (Rattus norvegicus, UniProt P15127); format: cell membranes, Wistar, Liver, Membrane; note: in other assays of this panel Not Active means under 50% inhibition at 10 µM
Sequence of Insulin receptor (P15127 27-759 limits assumed): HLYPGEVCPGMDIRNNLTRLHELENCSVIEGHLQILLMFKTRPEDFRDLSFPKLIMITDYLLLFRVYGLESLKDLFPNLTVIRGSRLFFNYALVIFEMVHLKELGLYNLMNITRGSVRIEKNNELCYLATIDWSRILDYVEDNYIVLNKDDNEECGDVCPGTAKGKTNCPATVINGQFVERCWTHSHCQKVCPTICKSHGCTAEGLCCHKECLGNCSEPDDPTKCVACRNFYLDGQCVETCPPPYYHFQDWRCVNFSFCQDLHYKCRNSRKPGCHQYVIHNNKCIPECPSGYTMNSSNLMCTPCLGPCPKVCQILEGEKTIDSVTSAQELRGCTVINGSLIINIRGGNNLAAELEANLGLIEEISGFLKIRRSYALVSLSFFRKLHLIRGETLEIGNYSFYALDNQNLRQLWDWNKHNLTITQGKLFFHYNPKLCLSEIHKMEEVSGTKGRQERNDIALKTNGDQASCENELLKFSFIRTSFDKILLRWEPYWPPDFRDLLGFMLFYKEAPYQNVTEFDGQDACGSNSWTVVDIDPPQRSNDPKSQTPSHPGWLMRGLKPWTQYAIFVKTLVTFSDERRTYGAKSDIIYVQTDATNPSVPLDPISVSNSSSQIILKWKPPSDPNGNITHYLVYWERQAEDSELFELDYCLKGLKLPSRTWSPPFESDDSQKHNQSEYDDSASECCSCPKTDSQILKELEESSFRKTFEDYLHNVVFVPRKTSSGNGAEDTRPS
Sequence of Insulin receptor (P15127 764-1383 limits assumed): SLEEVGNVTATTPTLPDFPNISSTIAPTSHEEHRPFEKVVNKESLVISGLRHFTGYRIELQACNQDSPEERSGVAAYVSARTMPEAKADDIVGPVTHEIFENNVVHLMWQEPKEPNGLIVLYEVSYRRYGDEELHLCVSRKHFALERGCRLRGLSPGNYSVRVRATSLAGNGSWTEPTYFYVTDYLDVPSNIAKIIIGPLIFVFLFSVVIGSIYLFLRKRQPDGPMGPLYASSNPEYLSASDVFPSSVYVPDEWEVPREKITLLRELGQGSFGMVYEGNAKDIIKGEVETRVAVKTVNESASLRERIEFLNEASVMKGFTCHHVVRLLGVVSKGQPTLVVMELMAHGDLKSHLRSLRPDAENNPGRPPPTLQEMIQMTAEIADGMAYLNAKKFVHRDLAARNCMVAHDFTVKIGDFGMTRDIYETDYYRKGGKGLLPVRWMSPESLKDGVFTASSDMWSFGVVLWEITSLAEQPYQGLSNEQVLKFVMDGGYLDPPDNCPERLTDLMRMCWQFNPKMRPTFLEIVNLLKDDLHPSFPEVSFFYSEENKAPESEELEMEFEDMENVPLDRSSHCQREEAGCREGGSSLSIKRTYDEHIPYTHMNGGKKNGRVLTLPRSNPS

[6] = target: T2, C-C chemokine receptor type 4 (Homo sapiens, UniProt P51679); format: cell membranes, Chem-1, Membrane; conditions: chem-1; note: in other assays of this panel Not Active means under 50% inhibition at 10 µM
T2 sequence (P51679 whole entry): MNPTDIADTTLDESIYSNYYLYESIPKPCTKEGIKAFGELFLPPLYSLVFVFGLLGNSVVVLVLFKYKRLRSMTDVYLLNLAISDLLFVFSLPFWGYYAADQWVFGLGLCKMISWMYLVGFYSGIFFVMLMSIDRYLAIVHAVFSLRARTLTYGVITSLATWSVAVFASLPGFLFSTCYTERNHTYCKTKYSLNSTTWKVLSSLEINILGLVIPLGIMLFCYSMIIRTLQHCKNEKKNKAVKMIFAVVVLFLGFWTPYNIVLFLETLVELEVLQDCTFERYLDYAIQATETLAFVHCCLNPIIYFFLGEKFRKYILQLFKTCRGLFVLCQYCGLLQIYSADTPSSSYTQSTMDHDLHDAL

COc1ccc(C[C@H](N)C(=O)N[C@H]2[C@@H](O)[C@H](n3cnc4c(N(C)C)ncnc43)O[C@@H]2CO)cc1 [PUROMYCIN]
Not Active: IC50 [1] | Ki [1] | IC50 ([2]; cho-k1) | IC50 [3] | Ki [3] | IC50 ([4]; cho-k1) | IC50 (Cathepsin G) | IC50 [5] | Ki [5] | IC50 (Insulin receptor) | IC50 [6]

ClC1=C(Cl)[C@]2(Cl)[C@@H]3[C@@H]4C[C@@H]([C@H]5O[C@@H]45)[C@@H]3[C@@]1(Cl)C2(Cl)Cl [DIELDRIN]
Not Active: IC50 [1] | Ki [1] | IC50 ([2]; cho-k1) | IC50 [3] | Ki [3] | IC50 ([4]; cho-k1) | IC50 (Cathepsin G) | IC50 [5] | Ki [5] | IC50 (Insulin receptor) | IC50 [6]

CARBOXYMETHYLCELLULOSE
Not Active: IC50 [1] | Ki [1] | IC50 ([2]; cho-k1) | Ki ([2]; cho-k1) | IC50 [3] | Ki [3] | IC50 ([4]; cho-k1) | Ki ([4]; cho-k1) | IC50 (Cathepsin G) | Ki (Cathepsin G) | IC50 [5] | Ki [5] | IC50 (Insulin receptor) | Ki (Insulin receptor) | IC50 [6] | Ki [6]

CC(CN1c2ccccc2Sc2ccccc21)N(C)C (stereo not given) [PROMETHAZINE]
43 nM: Ki ([4]; read-out: Ki)
Not Active: IC50 [1] | Ki [1] | IC50 ([2]; cho-k1) | IC50 [3] | Ki [3] | IC50 (Cathepsin G) | IC50 [5] | Ki [5] | IC50 (Insulin receptor) | IC50 [6]
68 nM: IC50 ([4]; read-out: IC50)

NCC(CC(=O)O)c1ccc(Cl)cc1 (stereo not given) [BACLOFEN]
Not Active: IC50 [1] | Ki [1] | IC50 ([2]; cho-k1) | IC50 [3] | Ki [3] | IC50 ([4]; cho-k1) | IC50 (Cathepsin G) | IC50 [5] | Ki [5] | IC50 (Insulin receptor) | IC50 [6]

CN(CCOc1ccc(C[C@H](Nc2ccccc2C(=O)c2ccccc2)C(=O)O)cc1)c1ccccn1
Not Active: IC50 [1] | Ki [1] | IC50 [3] | Ki [3] | IC50 ([4]; cho-k1) | IC50 (Cathepsin G) | IC50 [5] | Ki [5] | IC50 (Insulin receptor) | IC50 [6]
10.8 µM: Ki ([2]; read-out: Ki)
13.6 µM: IC50 ([2]; read-out: IC50)

COPPER(II) OXIDE
Not Active: IC50 [1] | Ki [1] | IC50 ([2]; cho-k1) | Ki ([2]; cho-k1) | IC50 [3] | Ki [3] | IC50 ([4]; cho-k1) | Ki ([4]; cho-k1) | IC50 (Cathepsin G) | Ki (Cathepsin G) | IC50 [5] | Ki [5] | IC50 (Insulin receptor) | Ki (Insulin receptor) | IC50 [6] | Ki [6]

Cl.NC[C@H]1CC[C@H](C(=O)Oc2ccc(CCC(=O)O)cc2)CC1 [CETRAXATE HYDROCHLORIDE]
Not Active: IC50 [1] | Ki [1] | IC50 ([2]; cho-k1) | IC50 [3] | Ki [3] | IC50 ([4]; cho-k1) | IC50 (Cathepsin G) | IC50 [5] | Ki [5] | IC50 (Insulin receptor) | IC50 [6]

C[C@H](C(=O)O)c1ccc2oc(-c3ccc(F)cc3)nc2c1 [FLUNOXAPROFEN]
Not Active: IC50 [1] | Ki [1] | IC50 ([2]; cho-k1) | IC50 [3] | Ki [3] | IC50 ([4]; cho-k1) | IC50 (Cathepsin G) | IC50 [5] | Ki [5] | IC50 (Insulin receptor) | IC50 [6]

CCN1CCN(c2cc3c(cc2F)c(=O)c(C(=O)O)cn3C2CC2)CC1 [ENROFLOXACIN]
Not Active: IC50 [1] | Ki [1] | IC50 ([2]; cho-k1) | IC50 [3] | Ki [3] | IC50 ([4]; cho-k1) | IC50 (Cathepsin G) | IC50 [5] | Ki [5] | IC50 (Insulin receptor) | IC50 [6]

C[C@]12CC[C@@H](O)C[C@@H]1CC[C@@H]1[C@@H]2CC[C@]2(C)C(=O)CC[C@@H]12 [ANDROSTERONE]
Not Active: IC50 [1] | Ki [1] | IC50 ([2]; cho-k1) | IC50 [3] | Ki [3] | IC50 ([4]; cho-k1) | IC50 (Cathepsin G) | IC50 [5] | Ki [5] | IC50 (Insulin receptor) | IC50 [6]

O=C(NCCN1CCOCC1)c1ccc(Cl)cc1 [MOCLOBEMIDE]
Not Active: IC50 [1] | Ki [1] | IC50 ([2]; cho-k1) | IC50 [3] | Ki [3] | IC50 ([4]; cho-k1) | IC50 (Cathepsin G) | IC50 [5] | Ki [5] | IC50 (Insulin receptor) | IC50 [6]

NC(=O)CN1CCCC1=O
Not Active: IC50 [1] | Ki [1] | IC50 ([2]; cho-k1) | IC50 [3] | Ki [3] | IC50 ([4]; cho-k1) | IC50 (Cathepsin G) | IC50 [5] | Ki [5] | IC50 (Insulin receptor) | IC50 [6]

Oc1ccccc1 [PHENOL]
Not Active: IC50 [1] | Ki [1] | IC50 ([2]; cho-k1) | IC50 [3] | Ki [3] | IC50 ([4]; cho-k1) | IC50 (Cathepsin G) | IC50 [5] | Ki [5] | IC50 (Insulin receptor) | IC50 [6]

CCO [ALCOHOL]
Not Active: IC50 [1] | Ki [1] | IC50 ([2]; cho-k1) | IC50 [3] | Ki [3] | IC50 ([4]; cho-k1) | IC50 (Cathepsin G) | IC50 [5] | Ki [5] | IC50 (Insulin receptor) | IC50 [6]

OC[C@H]1O[C@@H]2O[C@H]3[C@H](O)[C@@H](O)[C@@H](O[C@H]4[C@H](O)[C@@H](O)[C@@H](O[C@H]5[C@H](O)[C@@H](O)[C@@H](O[C@H]6[C@H](O)[C@@H](O)[C@@H](O[C@H]7[C@H](O)[C@@H](O)[C@@H](O[C@H]8[C@H](O)[C@@H](O)[C@@H](O[C@H]1[C@H](O)[C@H]2O)O[C@@H]8CO)O[C@@H]7CO)O[C@@H]6CO)O[C@@H]5CO)O[C@@H]4CO)O[C@@H]3CO [BETADEX]
Not Active: IC50 [1] | Ki [1] | IC50 ([2]; cho-k1) | IC50 [3] | Ki [3] | IC50 ([4]; cho-k1) | IC50 (Cathepsin G) | IC50 [5] | Ki [5] | IC50 (Insulin receptor) | IC50 [6]

COc1cc(NC(C)CCCN)c2ncccc2c1 (stereo not given) [PRIMAQUINE]
Not Active: IC50 [1] | Ki [1] | IC50 ([2]; cho-k1) | IC50 [3] | Ki [3] | IC50 ([4]; cho-k1) | IC50 (Cathepsin G) | IC50 [5] | Ki [5] | IC50 (Insulin receptor) | IC50 [6]

Cc1c(N)nc([C@H](CC(N)=O)NC[C@H](N)C(N)=O)nc1C(=O)N[C@H](C(=O)N[C@H](C)[C@@H](O)[C@H](C)C(=O)N[C@H](C(=O)NCCc1nc(-c2nc(C(=O)NCCC[S+](C)C)cs2)cs1)[C@@H](C)O)[C@@H](O[C@@H]1O[C@@H](CO)[C@@H](O)[C@H](O)[C@@H]1O[C@H]1O[C@H](CO)[C@@H](O)[C@H](OC(N)=O)[C@@H]1O)c1c[nH]cn1.[Br-] [BLEOMYCIN A2]
Not Active: IC50 [1] | Ki [1] | IC50 ([2]; cho-k1) | IC50 [3] | Ki [3] | IC50 ([4]; cho-k1) | IC50 (Cathepsin G) | IC50 [5] | Ki [5] | IC50 (Insulin receptor) | IC50 [6]
